Tests used:
[1] = system: normal mouse long term culture of bone marrow and hematopoietic colonies; assay: Phototoxicity against hematopoietic progenitor cell cultures (long term culture of bone marrow, semi-solid colony assays); format: cell-based
Excerpt: However, as reported for rhodamine 123, the LTC (Long Term Culture) establishment is more sensitive to the dyes but the number of viable committed precursor and stem cells remains unaffected. […] This is in agreement with results obtained previously in other laboratories using rhodamine 123.

[2] = system: K-562 cell line; assay: In vitro phototoxicity, cell viability in the K-562 cell line procedure (argon ion laser 514.5 nm); format: cell-based
Protocol: To ascertain the photochemotherapeutic potential of 4, 5-dibromorhodamine 110 n-butyl ester hydrobromide (DBBE), in vitro phototoxicity was evaluated in the K-562 cell line procedure described. The cells were incubated with increasing concentrations of DBBE and the cell viability was measured at different time points following photodynamic therapy.
The photo toxicity in vitro of rhodamine B n-butyl ester (RBBE) was evaluated in the K-562 cell line procedure, in order to assess its photochemotherapeutic potential. Comparison was made to the induced phototoxicity of rhodamine 123 (RH123) and of rhodamine nB-butyl ester hydrochloride. Cell viability was evaluated 2 and 20 hours after photodynamic therapy. […] Rhodamine 123 has no effect on cell viability, even at exposures of 5 J/cm^2. Phototoxicity of 4,5-dibromorhodamine 110 n-butyl ester hydrobromide and rhodamine B n-butyl ester hydrochloride were only assessed against the cell line K562. However, we anticipate that their activity will be similar against T cells.

`Br.CCCCOC(=O)c1ccccc1-c1c2ccc(=N)c(Br)c-2oc2c(Br)c(N)ccc12` [DBBE, 4,5-dibromorhodamine 110 (2-(4,5-dibromo-6-amino-3-imino-3H-xanthen-9-yl)-benzoic acid) n-butyl ester hydrobromide] was tested, and the “establishment of normal mouse long term culture of bone marrow and formation of hematopoietic colonies in semi-solid assays after photodynamic therapy” value (“establishment” below) [1] was “minimally impaired” and the “cell viability after photodynamic therapy” value ([2]; 10 μg/ml, 0.5 J/cm^2 at 514.5 nm, less than 24 hours after irradiation) was “completely suppress”.
`CCCCOC(=O)c1ccccc1-c1c2ccc(=NCC)cc-2oc2cc(N(CC)CC)ccc12.Cl` [RBBE, Rhodamine B n-butyl ester (2-(6-diethyl amino-3-ethyl imino-3H-xanthen-9-yl)-benzoic acid) n-butyl diester hydrochloride] was tested, and the “establishment” value [1] was “minimally impaired” and the “cell viability of K562 cells after photodynamic therapy” value ([2]; 10 µg/ml, 5 J/cm^2 argon ion laser 514.5 nm, less than 20 hours after irradiation) was “significantly suppress”.
For `COC(=O)c1ccccc1-c1c2ccc(=N)cc-2oc2cc(N)ccc12.Cl` [Rhodamine 123, Rhodamine 123 (2-(6-amino-3-imino-3H-xanthen-9-yl)benzoic acid methyl ester) hydrochloride, reference compound], the “establishment” value [1] was “minimally impaired” and the “effect on cell viability” value ([2]; even at exposures of 5 J/cm^2) was “no effect”.
